For experiment [1], the target named is T1, E-selectin (Homo sapiens) (UniProt P16581).
T1 sequence (whole entry): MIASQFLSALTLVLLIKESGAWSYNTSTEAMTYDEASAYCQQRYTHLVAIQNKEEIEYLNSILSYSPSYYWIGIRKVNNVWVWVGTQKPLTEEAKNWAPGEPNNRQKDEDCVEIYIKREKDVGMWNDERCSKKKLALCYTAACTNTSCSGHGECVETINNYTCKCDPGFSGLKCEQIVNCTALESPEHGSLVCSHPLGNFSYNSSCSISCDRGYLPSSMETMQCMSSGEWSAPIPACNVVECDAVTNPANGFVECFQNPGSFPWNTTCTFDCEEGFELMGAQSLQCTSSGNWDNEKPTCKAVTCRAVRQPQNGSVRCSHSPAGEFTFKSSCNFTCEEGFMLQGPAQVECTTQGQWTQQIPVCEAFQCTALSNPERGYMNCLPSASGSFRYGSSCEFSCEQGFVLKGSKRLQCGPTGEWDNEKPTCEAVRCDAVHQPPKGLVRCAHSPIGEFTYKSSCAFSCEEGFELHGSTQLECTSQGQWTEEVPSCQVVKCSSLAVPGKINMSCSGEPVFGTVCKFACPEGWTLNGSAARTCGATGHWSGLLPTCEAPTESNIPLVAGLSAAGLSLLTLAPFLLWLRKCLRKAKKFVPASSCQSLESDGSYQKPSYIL
The experiment can be described thus: Relative inhibitory concentration against Selectin E to that of sLex in a static cell free ligand binding assay.

Experiment [2] addresses T1, E-selectin (Homo sapiens). The settings on record: 200uM.
Description: Percent inhibition of Selectin E by the compound at a dose of 200uM
A further experiment deals with T2, E-selectin (Homo sapiens, UniProt P16581).
T2 sequence (P16581 whole entry): T1 sequence (whole entry)
The experiment can be described thus: Inhibitory concentration against Selectin E in a static cell free ligand binding assay under equilibrium conditions.

Experiment [3] addresses T1, E-selectin (Homo sapiens). Conditions: 50uM.
Description: Percent inhibition of Selectin E by the compound at a dose of 50uM
Experiment [4] has as its target T1, E-selectin (Homo sapiens). Conditions: 10uM.
Description: Percent inhibition of Selectin E by the compound at a dose of 10uM

Molecules are shown by their SMILES.

In experiment [1], `COC(=O)CCCCCCCCOC1O[C@@H](O)[C@@H](O[C@@H]2O[C@@H](CO)[C@H](O)[C@H](O[C@]3(C(=O)O)C[C@@H](O)[C@@H](NC(C)=O)[C@H]([C@@H](O)[C@H](O)CO)O3)[C@@H]2O)[C@H](O[C@@H]2O[C@@H](C)[C@@H](O)[C@H](O)[C@@H]2O)[C@@H]1NC(=O)c1ccc(OC)c(OC)c1` (some centres undefined) returned a Relative IC50 of 0.164.
Take `C[C@@H]1O[C@@H](O[C@@H]2[C@H](CO)OCC[C@H]2O[C@@H]2O[C@@H](CO)[C@H](O)[C@H](OC(CC3CCCCC3)C(=O)O)[C@@H]2O)[C@@H](O)[C@@H](O)[C@@H]1O` (single isomer, unassigned): the Relative IC50 in experiment [1] was 0.031.
Compound `COC(=O)CCCCCCCCO[C@@H]1O[C@@H](CO)[C@@H](O[C@@H]2O[C@@H](CO)[C@H](O)[C@H](O[C@]3(C(=O)O)C[C@@H](O)[C@@H](NC(C)=O)[C@H]([C@@H](O)[C@H](O)CO)O3)[C@@H]2O)[C@H](O[C@@H]2O[C@@H](C)[C@@H](O)[C@H](O)[C@@H]2O)[C@@H]1NC(C)=O` had a Relative IC50 in experiment [1] of 1.
What is called inhibition is the change of the read-out against control, counted positive when it falls. Low values mean little suppression, high ones strong suppression. As usually defined, the IC50 is the midpoint of a concentration-inhibition curve. The low end stands for greater potency in that assay, the high end for weaker potency in that assay. Consider `COC(=O)CCCCCCCCO[C@@H]1O[C@@H](CO)[C@@H](O[C@@H]2O[C@@H](CO)[C@H](O)[C@H](O[C@@H](CC3CCCCC3)C(=O)O)[C@@H]2O)[C@H](O[C@@H]2O[C@@H](C)[C@@H](O)[C@H](O)[C@@H]2O)[C@@H]1NC(=O)c1ccc(OC)c(OC)c1`, for which the values for the inhibition in experiment [2], in experiment [3] and in experiment [4] were 97%, 93% and 54%, respectively. The same compound registered an IC50 at E-selectin of 1500 µM. This compound also displayed a Relative IC50 in experiment [1] of 0.03.
Compound `C[C@@H]1O[C@@H](O[C@@H]2CCCC[C@H]2O[C@@H]2O[C@@H](CO)[C@H](O)[C@H](OC(CC3CCCCC3)C(=O)O)[C@@H]2O)[C@@H](O)[C@@H](O)[C@@H]1O` (single isomer, unassigned) yielded a Relative IC50 in experiment [1] of 0.115.
